{"source": "patent US20240197666A1", "about": "“DITERPENOID COMPOUNDS THAT ACT ON PROTEIN KINASE C (PKC)” (K-Gen Therapeutics, Inc., priority 2021, published 2024)", "key": {"[1]": {"assay": "Pharmacokinetic study, intravenous bolus injection in rats", "format": "in vivo, rat", "conditions": "for AUClast / C0 / CL / MRTInf / Vss / Vz / t1/2: rat plasma, bolus injection", "description": "Plasma samples were taken at 1 minute, 5 minutes, 15 minutes, 30 minutes, 1 hour, 2 hours, 4 hours, 7 hours, and 24 hours. The drug concentrations at each time point were determined by LC-MS. The results of drug concentrations and pharmacokinetic parameters are presented in the Table 6 and Table 7, respectively, below."}, "4T1-luc2 tumor": {"test_system": "4T1-luc2 tumor", "assay": "4T1-luc2 orthotopic breast cancer metastasis model, IT injection", "format": "in vivo, mouse", "excerpt": "Syngeneic mouse models are frequently used in assessing effect of immune-modulating compounds because both innate and adaptive immune systems are intact in the wild-type mouse strains.\nEach 6-8 weeks old female Balb/c mouse was surgically implanted with 1×10^6 4T1-luc2 tumor cells in the abdominal 4th right mammary fat pad for tumor development. The animals were randomized and treatments were started when the average tumor volume reached 86 mm^3. The group assignment, treatment dose, and schedule were as follows:\nMice were monitored daily for clinical signs and body weights were measured regularly as an indirect measure of toxicity. […] .\nAfter grouping, the bioluminescence measurements were taken once per week to monitor tumor growth in the fat pads and metastasis to other organs. Briefly, the mice were weighted and intra-peritoneal injected with luciferin at 150 mg/kg. 10 minutes after the luciferin administration, the animals were pre-anesthetized with the mixture gas of oxygen and isoflurane. The animals were moved into the imaging chamber for bioluminescence measurements with IVIS (Lumina II) in a complete anesthetic state. […] The bioluminescence signal decreased to the baseline range from the third week in three animals. These three animals were monitored for 87 days and their primary tumors were cured without any metastasis (FIG. 9B-9D). […] However, all tumors in the vehicle group mice kept growing, had steady increase in the bioluminescence signals, and had metastasized before mice died before day 40. A Kaplan-Meier method was used to analyze the animal survival rate between the vehicle group (n=12) and the treated group (n=11, one animal died unexpectedly due to animal attacking). The median survival day is 35.5 for the vehicle group and is 42 for the treated group (P<0.05)."}, "MC38 tumors": {"test_system": "MC38 tumors", "assay": "MC38 syngeneic model, efficacy and re-challenge", "format": "in vivo, mouse", "conditions": "for Live Animal at Day 50: N 8", "description": "8 weeks old female C57B/J6J mice were implanted subcutaneously at the right flank with 3×10^5 MC38 mouse colon cancer cells. Mice were randomized into different treatment groups (see above) when tumors grew to an average mean tumor size of 50-80 mm^3. Tumor size was measured three times weekly in two dimensions using a caliper, and the volume was expressed in mm^3 using the formula: V=0.5a×b^2 where a and b are the long and short diameters of the tumor, respectively. Mice were monitored daily for clinical signs and body weights were measured twice per week. All groups tolerated drug treatments very well with less than 10% body weight loss. […] Scabs formed near the site of IT injection and the skin recovered with minimal scaring within 3-4 weeks.\nFor the efficacy portion of the study, the major endpoint was the animal survival, defined as time to death or euthanasia when tumors ≥2000 mm^3. The survive rate is the proportion of live animals in each group on a given day. A Kaplan-Meier analysis was performed to compare animal survival between vehicle and treated groups. P<0.05 was considered to be statistically significant. Another endpoint is tumor clearance, for which the mice were monitor for over 50 days after the start of the treatment.\nTo test if anti-tumor immunity was developed in the cured mice, the re-challenge portion of the study was conducted. The major endpoint was the tumor initiation of the re-implanted tumor cells. Tumor fee survive rate is the proportion of tumor fee mice and the mice whose tumor volumes were below 50 mm^3 in each group on a given day. A Mann-Whitney method was performed to analyze the tumor initiation rate at the end of the re-challenge study and P<0.05 was considered to be statistically significant.\nMC38 cells (3×10^5) were re-implanted subcutaneously to the other flank (left flank) of the 8 tumor-eradicated mice (two from group 2, three each from groups 3 and 5). No MC38 tumors formed after 36 days in these 8 tumor-eradicated mice. To study the anti-tumor immunity further in the 8 tumor-eradicated mice, MC38 cells (3×10^5) and unrelated 3LL cells (lung cancer) (2×10^6) were re-implanted and implanted at opposite flanks in these mice. As control, five age-matched naïve mice were implanted with 3LL and MC38 tumor cells at opposite flanks. The re-challenge for control and K1K1-C1348101 groups were performed independently, but with same method and condition."}, "[2]": {"conditions": "re-challenge of 8 tumor-eradicated mice with 3LL cells"}, "[3]": {"conditions": "re-challenge of 8 tumor-eradicated mice with MC38 cells"}}, "data": [{"compound": "CC1=C[C@H]2[C@@]3(O)[C@H](C)C[C@]4(OC(=O)[C@@H](N)CC5CCCCC5)[C@H]([C@@H]3C=C(CO)C[C@]2(O)C1=O)C4(C)C", "values": [{"measurement": "Concentration in Rat Plasma after Bolus Injection, Mean", "setting": "[1]; Dose 0.1 mg/kg iv, 0.0167 hour post dose", "value": 216.0, "unit": "ng/mL"}, {"measurement": "Concentration in Rat Plasma after Bolus Injection, Mean", "setting": "[1]; Dose 0.1 mg/kg iv, 0.0833 hour post dose", "value": 49.2, "unit": "ng/mL"}, {"measurement": "Concentration in Rat Plasma after Bolus Injection, Mean", "setting": "[1]; Dose 0.1 mg/kg iv, 0.25 hour post dose", "value": 28.7, "unit": "ng/mL"}, {"measurement": "Concentration in Rat Plasma after Bolus Injection, Mean", "setting": "[1]; Dose 0.1 mg/kg iv, 0.5 hour post dose", "value": 19.4, "unit": "ng/mL"}, {"measurement": "Concentration in Rat Plasma after Bolus Injection, Mean", "setting": "[1]; Dose 0.1 mg/kg iv, 1 hour post dose", "value": 14.6, "unit": "ng/mL"}, {"measurement": "Concentration in Rat Plasma after Bolus Injection, Mean", "setting": "[1]; Dose 0.1 mg/kg iv, 2 hour post dose", "value": 5.0, "unit": "ng/mL"}, {"measurement": "Concentration in Rat Plasma after Bolus Injection, Mean", "setting": "[1]; Dose 0.1 mg/kg iv, 4 hour post dose", "value": 1.0, "unit": "ng/mL"}, {"measurement": "Concentration in Rat Plasma after Bolus Injection, Mean", "setting": "[1]; Dose 0.1 mg/kg iv, 7 hour post dose", "value": "<1", "unit": "ng/mL"}, {"measurement": "Concentration in Rat Plasma after Bolus Injection, Mean", "setting": "[1]; Dose 0.1 mg/kg iv, 24 hour post dose", "value": "<1", "unit": "ng/mL"}, {"measurement": "Concentration in Rat Plasma after Bolus Injection, Mean", "setting": "[1]; Dose 0.2 mg/kg iv, 0.0167 hour post dose", "value": 334.0, "unit": "ng/mL"}, {"measurement": "Concentration in Rat Plasma after Bolus Injection, Mean", "setting": "[1]; Dose 0.2 mg/kg iv, 0.0833 hour post dose", "value": 102.0, "unit": "ng/mL"}, {"measurement": "Concentration in Rat Plasma after Bolus Injection, Mean", "setting": "[1]; Dose 0.2 mg/kg iv, 0.25 hour post dose", "value": 65.0, "unit": "ng/mL"}, {"measurement": "Concentration in Rat Plasma after Bolus Injection, Mean", "setting": "[1]; Dose 0.2 mg/kg iv, 0.5 hour post dose", "value": 43.6, "unit": "ng/mL"}, {"measurement": "Concentration in Rat Plasma after Bolus Injection, Mean", "setting": "[1]; Dose 0.2 mg/kg iv, 1 hour post dose", "value": 37.6, "unit": "ng/mL"}, {"measurement": "Concentration in Rat Plasma after Bolus Injection, Mean", "setting": "[1]; Dose 0.2 mg/kg iv, 2 hour post dose", "value": 29.1, "unit": "ng/mL"}, {"measurement": "Concentration in Rat Plasma after Bolus Injection, Mean", "setting": "[1]; Dose 0.2 mg/kg iv, 4 hour post dose", "value": 6.0, "unit": "ng/mL"}, {"measurement": "Concentration in Rat Plasma after Bolus Injection, Mean", "setting": "[1]; Dose 0.2 mg/kg iv, 7 hour post dose", "value": "<1", "unit": "ng/mL"}, {"measurement": "Concentration in Rat Plasma after Bolus Injection, Mean", "setting": "[1]; Dose 0.2 mg/kg iv, 24 hour post dose", "value": "<1", "unit": "ng/mL"}, {"measurement": "AUClast", "setting": "[1]; 0.1 mg/kg", "value": 48.3, "unit": "ng·h/mL"}, {"measurement": "C0", "setting": "[1]; 0.1 mg/kg", "value": 314, "unit": "ng/mL"}, {"measurement": "CL", "setting": "[1]; 0.1 mg/kg", "value": 32.9, "unit": "mL/min/kg"}, {"measurement": "MRTInf", "setting": "[1]; 0.1 mg/kg", "value": 0.873, "unit": "h"}, {"measurement": "Vss", "setting": "[1]; 0.1 mg/kg", "value": 1.73, "unit": "L/kg"}, {"measurement": "Vz", "setting": "[1]; 0.1 mg/kg", "value": 2.44, "unit": "L/kg"}, {"measurement": "t1/2", "setting": "[1]; 0.1 mg/kg", "value": 0.857, "unit": "h"}, {"measurement": "AUClast", "setting": "[1]; 0.2 mg/kg", "value": 119, "unit": "ng·h/mL"}, {"measurement": "C0", "setting": "[1]; 0.2 mg/kg", "value": 450, "unit": "ng/mL"}, {"measurement": "CL", "setting": "[1]; 0.2 mg/kg", "value": 21.5, "unit": "mL/min/kg"}, {"measurement": "MRTInf", "setting": "[1]; 0.2 mg/kg", "value": 2.93, "unit": "h"}, {"measurement": "Vss", "setting": "[1]; 0.2 mg/kg", "value": 2.77, "unit": "L/kg"}, {"measurement": "Vz", "setting": "[1]; 0.2 mg/kg", "value": 3.25, "unit": "L/kg"}, {"measurement": "t1/2", "setting": "[1]; 0.2 mg/kg", "value": 2.29, "unit": "h"}]}, {"compound": "CC1=C[C@H]2[C@@]3(O)[C@H](C)C[C@]4(OC(=O)[C@H](N)CCCCCCc5ccccc5)[C@H]([C@@H]3C=C(CO)C[C@]2(O)C1=O)C4(C)C", "values": [{"measurement": "mean body weight loss", "setting": "4T1-luc2 tumor; 20 mg/ml, 20 μl (400 μg) IT, Balb/c mice", "value": "less than 10%"}, {"measurement": "median survival day", "setting": "4T1-luc2 tumor; 20 mg/ml, 20 μl (400 μg) IT, n=11", "value": 42, "unit": "days"}, {"measurement": "animals with primary tumors cured without any metastasis", "setting": "4T1-luc2 tumor; monitored for 87 days, single IT treatment", "value": "three"}, {"measurement": "complete eradication of tumors", "setting": "MC38 tumors; group 2 (5 mg/ml), 2 out of 8 tumors", "value": 25, "unit": "%"}, {"measurement": "% Increased Survival Time", "setting": "MC38 tumors; group 2: 5 mg/ml, 20 μl it", "value": 45, "unit": "%"}, {"measurement": "Increased Survival Time", "setting": "MC38 tumors; group 2: 5 mg/ml, 20 μl it", "value": 9, "unit": "days"}, {"measurement": "Median", "setting": "MC38 tumors; group 2: 5 mg/ml, 20 μl it", "value": 29, "unit": "days"}, {"measurement": "Live Animal at Day 50", "setting": "MC38 tumors; group 2: 5 mg/ml, 20 μl it, D 0,1,2,7,8,9", "value": 2}, {"measurement": "complete eradication of tumors", "setting": "MC38 tumors; group 3 (20 mg/ml), 3 out of 8 tumors", "value": 37.5, "unit": "%"}, {"measurement": "% Increased Survival Time", "setting": "MC38 tumors; group 3: 20 mg/ml, 20 μl", "value": 23, "unit": "%"}, {"measurement": "Increased Survival Time", "setting": "MC38 tumors; group 3: 20 mg/ml, 20 μl", "value": 4.5, "unit": "days"}, {"measurement": "Median", "setting": "MC38 tumors; group 3: 20 mg/ml, 20 μl", "value": 24.5, "unit": "days"}, {"measurement": "Live Animal at Day 50", "setting": "MC38 tumors; group 3: 20 mg/ml, 20 μl, D 0,1,2", "value": 3}, {"measurement": "Tumor initiation (mice)", "setting": "MC38 tumors; [2]", "value": 8}, {"measurement": "Tumor-free (mice)", "setting": "MC38 tumors; [2]", "value": 0}, {"measurement": "Tumor initiation (mice)", "setting": "MC38 tumors; [3]", "value": 0}, {"measurement": "Tumor-free (mice)", "setting": "MC38 tumors; [3]", "value": 8}]}]}
